According to ChEMBL document CHEMBL4396916, “Novel potent substituted 4-amino-2-thiopyrimidines as dual VEGFR-2 and BRAF kinase inhibitors” (Eur J Med Chem, 2019):

Tests used:
BT-549 = test: Growth inhibition of human BT549 cells at 10 uM incubated for 48 hrs by sulforhodamine B assay relative to control; assay type: functional; settings: BT-549, 48 h, read-out: GI
HCT-116 = test: Growth inhibition of human HCT116 cells at 10 uM incubated for 48 hrs by sulforhodamine B assay relative to control; assay type: functional; settings: HCT-116, 48 h, read-out: GI
NCI-H226 = test: Growth inhibition of human NCI-H226 cells at 10 uM incubated for 48 hrs by sulforhodamine B assay relative to control; assay type: functional; settings: NCI-H226, 48 h, read-out: GI
MDA-MB-231 = test: Growth inhibition of human MDA-MB-231 cells at 10 uM incubated for 48 hrs by sulforhodamine B assay relative to control; assay type: functional; settings: MDA-MB-231, 48 h, read-out: GI
UO-31 = test: Growth inhibition of human UO31 cells at 10 uM incubated for 48 hrs by sulforhodamine B assay relative to control; assay type: functional; settings: UO-31, 48 h, read-out: GI
SK-MEL-28 = test: Growth inhibition of human SK-MEL-28 cells at 10 uM incubated for 48 hrs by sulforhodamine B assay relative to control; assay type: functional; settings: SK-MEL-28, 48 h, read-out: GI
UACC-257 = test: Growth inhibition of human UACC257 cells at 10 uM incubated for 48 hrs by sulforhodamine B assay relative to control; assay type: functional; settings: UACC-257, 48 h, read-out: GI
MDA-MB-435 = test: Growth inhibition of human MDA-MB-435 cells at 10 uM incubated for 48 hrs by sulforhodamine B assay relative to control; assay type: functional; settings: MDA-MB-435, 48 h, read-out: GI
[1] = biological target: Vascular endothelial growth factor receptor 2 (Homo sapiens, UniProt P35968); test: Inhibition of human N-terminal GST tagged VEGFR-2 expressed in baculovirus infected Sf9 cells using poly (Glu,Tyr) 4:1 as substrate in presence of ATP by Kinase-Glo luminescence assay
Sequence of Vascular endothelial growth factor receptor 2 (P35968 whole entry): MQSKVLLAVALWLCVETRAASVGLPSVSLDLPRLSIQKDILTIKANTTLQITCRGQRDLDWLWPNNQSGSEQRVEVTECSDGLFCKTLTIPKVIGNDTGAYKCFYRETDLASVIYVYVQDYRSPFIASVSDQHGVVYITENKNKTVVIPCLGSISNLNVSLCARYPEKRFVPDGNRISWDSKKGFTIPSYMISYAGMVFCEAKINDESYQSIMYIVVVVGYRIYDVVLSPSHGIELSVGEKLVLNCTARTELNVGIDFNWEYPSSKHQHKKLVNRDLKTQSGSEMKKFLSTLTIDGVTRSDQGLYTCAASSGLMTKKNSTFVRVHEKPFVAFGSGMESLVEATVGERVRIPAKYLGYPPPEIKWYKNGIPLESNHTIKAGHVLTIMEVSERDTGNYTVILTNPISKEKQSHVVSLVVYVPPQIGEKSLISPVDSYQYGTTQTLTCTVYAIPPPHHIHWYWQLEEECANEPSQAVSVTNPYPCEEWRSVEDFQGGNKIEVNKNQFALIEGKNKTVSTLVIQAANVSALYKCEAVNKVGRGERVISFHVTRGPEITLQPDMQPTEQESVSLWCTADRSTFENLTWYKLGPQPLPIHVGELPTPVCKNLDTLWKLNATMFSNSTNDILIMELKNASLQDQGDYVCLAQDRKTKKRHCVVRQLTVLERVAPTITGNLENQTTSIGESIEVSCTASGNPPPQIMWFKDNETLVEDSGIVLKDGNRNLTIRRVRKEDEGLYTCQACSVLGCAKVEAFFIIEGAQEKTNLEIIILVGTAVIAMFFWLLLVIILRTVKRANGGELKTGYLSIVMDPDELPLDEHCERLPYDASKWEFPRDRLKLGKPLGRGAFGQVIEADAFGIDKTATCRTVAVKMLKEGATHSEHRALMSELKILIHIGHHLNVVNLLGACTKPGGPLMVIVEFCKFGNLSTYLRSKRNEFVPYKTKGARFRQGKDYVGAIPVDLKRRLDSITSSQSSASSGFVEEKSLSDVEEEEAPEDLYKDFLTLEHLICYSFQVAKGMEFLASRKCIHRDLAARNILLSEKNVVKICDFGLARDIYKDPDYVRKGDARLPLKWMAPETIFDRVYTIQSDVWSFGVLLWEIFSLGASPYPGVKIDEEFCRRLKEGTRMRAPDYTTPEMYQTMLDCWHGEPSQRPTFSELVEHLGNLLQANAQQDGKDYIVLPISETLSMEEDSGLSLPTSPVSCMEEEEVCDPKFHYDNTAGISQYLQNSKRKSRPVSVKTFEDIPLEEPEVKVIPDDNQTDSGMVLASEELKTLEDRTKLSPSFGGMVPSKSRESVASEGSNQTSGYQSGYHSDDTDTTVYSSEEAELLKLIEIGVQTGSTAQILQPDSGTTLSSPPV

LOX IMVI = test: Growth inhibition of human LOXIMVI cells at 10 uM incubated for 48 hrs by sulforhodamine B assay relative to control; assay type: functional; settings: read-out: GI
[2] = biological target: Serine/threonine-protein kinase B-raf (Homo sapiens, UniProt P15056); test: Inhibition of human wild type BRAF by Kinase-Glo luminescence assay
Sequence of Serine/threonine-protein kinase B-raf (P15056 whole entry): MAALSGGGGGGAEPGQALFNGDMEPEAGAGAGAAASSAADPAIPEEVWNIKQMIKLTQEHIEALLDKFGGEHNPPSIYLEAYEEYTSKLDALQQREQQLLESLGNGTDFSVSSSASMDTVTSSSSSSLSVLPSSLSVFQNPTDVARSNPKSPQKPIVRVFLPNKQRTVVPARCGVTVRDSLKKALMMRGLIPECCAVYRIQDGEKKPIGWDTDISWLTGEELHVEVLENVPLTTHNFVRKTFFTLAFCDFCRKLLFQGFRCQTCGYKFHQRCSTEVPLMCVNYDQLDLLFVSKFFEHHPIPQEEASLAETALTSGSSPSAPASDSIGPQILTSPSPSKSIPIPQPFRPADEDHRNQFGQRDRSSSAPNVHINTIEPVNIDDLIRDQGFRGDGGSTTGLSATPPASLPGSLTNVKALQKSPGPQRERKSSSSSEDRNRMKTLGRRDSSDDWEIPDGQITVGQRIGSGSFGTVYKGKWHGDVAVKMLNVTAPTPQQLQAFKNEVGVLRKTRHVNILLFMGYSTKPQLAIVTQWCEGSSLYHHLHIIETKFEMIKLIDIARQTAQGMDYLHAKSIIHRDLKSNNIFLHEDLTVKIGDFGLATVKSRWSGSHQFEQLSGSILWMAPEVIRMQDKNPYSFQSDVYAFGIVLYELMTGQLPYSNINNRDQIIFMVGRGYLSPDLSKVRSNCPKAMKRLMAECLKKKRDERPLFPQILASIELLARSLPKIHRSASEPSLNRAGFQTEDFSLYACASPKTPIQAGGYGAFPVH

RPMI-8226 = test: Growth inhibition of human RPMI8226 cells at 10 uM incubated for 48 hrs by sulforhodamine B assay relative to control; assay type: functional; settings: RPMI-8226, 48 h, read-out: GI
NCI/ADR-RES = test: Growth inhibition of human NCI/ADR-RES cells at 10 uM incubated for 48 hrs by sulforhodamine B assay relative to control; assay type: functional; settings: read-out: GI
SF-295 = test: Growth inhibition of human SF295 cells at 10 uM incubated for 48 hrs by sulforhodamine B assay relative to control; assay type: functional; settings: SF-295, 48 h, read-out: GI
UACC-62 = test: Growth inhibition of human UACC62 cells at 10 uM incubated for 48 hrs by sulforhodamine B assay relative to control; assay type: functional; settings: UACC-62, 48 h, read-out: GI
MCF7 [3] = test: Cytotoxicity against human MCF7 cells expressing VEGFR2 and wild type BRAF measured after 48 hrs by sulforhodamine B assay; assay type: functional, cell-based; settings: MCF7, 48 h
CAKI-1 = test: Growth inhibition of human Caki1 cells at 10 uM incubated for 48 hrs by sulforhodamine B assay relative to control; assay type: functional; settings: CAKI-1, 48 h, read-out: GI
EKVX = test: Growth inhibition of human EKVX cells at 10 uM incubated for 48 hrs by sulforhodamine B assay relative to control; assay type: functional; settings: read-out: GI
CCRF-CEM = test: Growth inhibition of human CCRF-CEM cells at 10 uM incubated for 48 hrs by sulforhodamine B assay relative to control; assay type: functional; settings: read-out: GI
ACHN = test: Growth inhibition of human ACHN cells at 10 uM incubated for 48 hrs by sulforhodamine B assay relative to control; assay type: functional; settings: read-out: GI
SN12C = test: Growth inhibition of human SN12C cells at 10 uM incubated for 48 hrs by sulforhodamine B assay relative to control; assay type: functional; settings: read-out: GI
SF-539 = test: Growth inhibition of human SF539 cells at 10 uM incubated for 48 hrs by sulforhodamine B assay relative to control; assay type: functional; settings: SF-539, 48 h, read-out: GI
SR = test: Growth inhibition of human SR cells at 10 uM incubated for 48 hrs by sulforhodamine B assay relative to control; assay type: functional; settings: read-out: GI
MCF7 [4] = test: Growth inhibition of human MCF7 cells at 10 uM incubated for 48 hrs by sulforhodamine B assay relative to control; assay type: functional; settings: MCF7, 48 h, read-out: GI
HCT-15 = test: Growth inhibition of human HCT15 cells at 10 uM incubated for 48 hrs by sulforhodamine B assay relative to control; assay type: functional; settings: HCT-15, 48 h, read-out: GI
MDA-MB-468 = test: Growth inhibition of human MDA-MB-468 cells at 10 uM incubated for 48 hrs by sulforhodamine B assay relative to control; assay type: functional; settings: MDA-MB-468, 48 h, read-out: GI
DU-145 = test: Growth inhibition of human DU145 cells at 10 uM incubated for 48 hrs by sulforhodamine B assay relative to control; assay type: functional; settings: DU-145, 48 h, read-out: GI
IGROV-1 = test: Growth inhibition of human IGROV1 cells at 10 uM incubated for 48 hrs by sulforhodamine B assay relative to control; assay type: functional; settings: IGROV-1, 48 h, read-out: GI
A498 = test: Growth inhibition of human A498 cells at 10 uM incubated for 48 hrs by sulforhodamine B assay relative to control; assay type: functional; settings: A498, 48 h, read-out: GI
KM12 = test: Growth inhibition of human KM12 cells at 10 uM incubated for 48 hrs by sulforhodamine B assay relative to control; assay type: functional; settings: KM12, 48 h, read-out: GI
OVCAR-8 = test: Growth inhibition of human OVCAR8 cells at 10 uM incubated for 48 hrs by sulforhodamine B assay relative to control; assay type: functional; settings: OVCAR-8, 48 h, read-out: GI
HT-29 = test: Growth inhibition of human HT-29 cells at 10 uM incubated for 48 hrs by sulforhodamine B assay relative to control; assay type: functional; settings: HT-29, 48 h, read-out: GI
SK-MEL-5 = test: Growth inhibition of human SK-MEL-5 cells at 10 uM incubated for 48 hrs by sulforhodamine B assay relative to control; assay type: functional; settings: SK-MEL-5, 48 h, read-out: GI
MOLT-4 = test: Growth inhibition of human MOLT4 cells at 10 uM incubated for 48 hrs by sulforhodamine B assay relative to control; assay type: functional; settings: MOLT-4, 48 h, read-out: GI
K562 = test: Growth inhibition of human K562 cells at 10 uM incubated for 48 hrs by sulforhodamine B assay relative to control; assay type: functional; settings: K562, 48 h, read-out: GI
NCI-H460 = test: Growth inhibition of human NCI-H460 cells at 10 uM incubated for 48 hrs by sulforhodamine B assay relative to control; assay type: functional; settings: NCI-H460, 48 h, read-out: GI
T47D [5] = test: Growth inhibition of human T47D cells at 10 uM incubated for 48 hrs by sulforhodamine B assay relative to control; assay type: functional; settings: read-out: GI
NCI-H522 = test: Growth inhibition of human NCI-H522 cells at 10 uM incubated for 48 hrs by sulforhodamine B assay relative to control; assay type: functional; settings: NCI-H522, 48 h, read-out: GI
NCI-H23 = test: Growth inhibition of human NCI-H23 cells at 10 uM incubated for 48 hrs by sulforhodamine B assay relative to control; assay type: functional; settings: NCI-H23, 48 h, read-out: GI
PC-3 = test: Growth inhibition of human PC3 cells at 10 uM incubated for 48 hrs by sulforhodamine B assay relative to control; assay type: functional; settings: PC-3, 48 h, read-out: GI
M14 = test: Growth inhibition of human M14 cells at 10 uM incubated for 48 hrs by sulforhodamine B assay relative to control; assay type: functional; settings: M14, 48 h, read-out: GI
MCF7 [6] = test: Inhibition of VEGFR2 level in human MCF7 cells at 10 uM measured after 48 hrs by ELISA relative to control; assay type: functional; settings: MCF7, 48 h
OVCAR-4 = test: Growth inhibition of human OVCAR4 cells at 10 uM incubated for 48 hrs by sulforhodamine B assay relative to control; assay type: functional; settings: OVCAR-4, 48 h, read-out: GI
T47D [7] = test: Cytotoxicity against human T47D cells expressing wild type BRAF measured after 48 hrs by sulforhodamine B assay; assay type: functional, cell-based
A549 = test: Growth inhibition of human A549/ATCC cells at 10 uM incubated for 48 hrs by sulforhodamine B assay relative to control; assay type: functional; settings: A549, 48 h, read-out: GI

IC50 [1]: 0.41 µM
IC50 [2]: 0.22 µM
SMILES: CCOC(=O)c1ccc(Nc2ccnc(SCC(=O)c3ccc([N+](=O)[O-])cc3)n2)cc1
inhibition of growth at 10 µM (BT-549): 28%
inhibition of growth at 10 µM (HCT-116): 26%
inhibition of growth at 10 µM (NCI-H226): 16%
inhibition of growth at 10 µM (MDA-MB-231): 22%
inhibition of growth at 10 µM (UO-31): 41%
inhibition of growth at 10 µM (SK-MEL-28): 11%
inhibition of growth at 10 µM (UACC-257): 13%
inhibition of growth at 10 µM (MDA-MB-435): 15%
inhibition of growth at 10 µM (LOX IMVI): 10%
inhibition of growth at 10 µM (RPMI-8226): 54%
inhibition of growth at 10 µM (NCI/ADR-RES): 27%
inhibition of growth at 10 µM (SF-295): 28%
inhibition of growth at 10 µM (UACC-62): 29%
IC50 (MCF7 [3]): 16.5 µM
inhibition of growth at 10 µM (CAKI-1): 16%
inhibition of growth at 10 µM (EKVX): 27%
inhibition of growth at 10 µM (CCRF-CEM): 49%
inhibition of growth at 10 µM (ACHN): 15%
inhibition of growth at 10 µM (SN12C): 17%
inhibition of growth at 10 µM (SF-539): 11%
inhibition of growth at 10 µM (SR): 35%
inhibition of growth at 10 µM (MCF7 [4]): 22%
inhibition of growth at 10 µM (HCT-15): 13%
inhibition of growth at 10 µM (MDA-MB-468): 51%
inhibition of growth at 10 µM (DU-145): 16%
inhibition of growth at 10 µM (IGROV-1): 19%
inhibition of growth at 10 µM (A498): 61%
inhibition of growth at 10 µM (KM12): 21%
inhibition of growth at 10 µM (OVCAR-8): 31%
inhibition of growth at 10 µM (HT-29): 19%
inhibition of growth at 10 µM (SK-MEL-5): 41%
inhibition of growth at 10 µM (MOLT-4): 58%
inhibition of growth at 10 µM (K562): 37%
inhibition of growth at 10 µM (NCI-H460): 11%
inhibition of growth at 10 µM (T47D [5]): 60%
inhibition of growth at 10 µM (NCI-H522): 37%
inhibition of growth at 10 µM (NCI-H23): 13%
inhibition of growth at 10 µM (PC-3): 33%
inhibition of growth at 10 µM (M14): 16%
inhibition at 10 µM (MCF7 [6]): 80%
inhibition of growth at 10 µM (OVCAR-4): 20%
IC50 (T47D [7]): 8.09 µM
inhibition of growth at 10 µM (A549): 21%
